Laboratory results taken from patent US10023602B2, “Hamamelitannin analogues and uses thereof” (Universiteit Gent, priority 2014, dated 2018).

Key:
[1] = tested on: methicillin resistant S. aureus Mu50 strain (S. aureus ATCC700699) biofilm; assay: Biofilm susceptibility to vancomycin, pre-treatment regimen (biofilm formed in presence of compound, then vancomycin); assay type: cell-based; details: for Pretreat (100 μM): percentage Colony Forming Units (CFU's) per biofilm: compound 100 μM during biofilm formation, then VAN 20 μg/ml, compared to the untreated (negative) control; for EC50: concentration needed to get 50% killing compared to antibiotic alone (VAN 20 μg/ml) and complete killing, read-out: Pretreat. (EC50)
Description: (§1) The compounds were evaluated for their effect on biofilm susceptibility both under pre-treatment and combination treatment regimens. In the pre-treatment regimen, a methicillin resistant S. aureus Mu50 strain (S. aureus ATCC700699) was allowed to form biofilms in the presence of the compounds after which the biofilm was treated with vancomycin (20 μg/ml). In the combination treatment regimen, S. aureus Mu50 was allowed to form a mature biofilm after which it was treated with a combination of a compound and vancomycin. In brief, 100 μl of a standardized inoculum (10^8 CFU/ml) was placed in the wells of a round-bottom 96-well microtiter plate. The cells were allowed to adhere to the plate in the absence (combined treatment) or presence (pre-treatment) of the compounds (0.1-250 μM) for 4 h at 37° C. After this adhesion step, non-adhered cells were removed, the wells were rinsed and fresh medium with or without the compounds was added. The plates were incubated for an additional 20 h at 37° C. After this, the medium was removed, biofilms were rinsed with physiological saline and vancomycin (20 μg/ml) was added alone (pre-treatment) or with the compounds (combined treatment, 0.1-250 μM). Plates were placed at 37° C. for 24 h after which medium was removed, wells were rinsed and the surviving cells in each condition were collected. The number of surviving cells under each condition was compared to vancomycin treatment alone and was assessed by conventional plating. The REF compound (hamamelitannin) was also observed for its effect on biofilm susceptibility towards other antibiotics (incl. vancomycin, cefoxitin, tobramycin, cefazolin, cefalonium, daptomycin, linezolide and cephalexin). Biofilms were formed as described above and were treated with the antibiotics alone or in combination with the REF compound (250 μM). The number of surviving cells under each condition was compared to the untreated control biofilm and was assessed by conventional plating.

[2] = tested on: methicillin resistant S. aureus Mu50 strain (S. aureus ATCC700699) biofilm; assay: Biofilm susceptibility to vancomycin, combination treatment regimen (mature biofilm treated with compound plus vancomycin); assay type: cell-based; details: for Combin. (100 μM): percentage Colony Forming Units (CFU's) per biofilm: compound 100 μM together with VAN 20 μg/ml on mature biofilm, compared to the untreated (negative) control; for EC50: concentration needed to get 50% killing compared to antibiotic alone (VAN 20 μg/ml) and complete killing, read-out: Combin. (EC50)
Description: as §1

Compound | Pretreat (100 μM): percentage Colony Forming Units (CFU's) per biofilm [1] [percentage] | EC50 [1] [µM] | Combin. (100 μM): percentage Colony Forming Units (CFU's) per biofilm [2] [percentage] | EC50 [2] [µM]
O=C(NC[C@H]1OC(O)[C@@](O)(CNC(=O)c2cc(O)c(O)c(O)c2)[C@@H]1O)c1cc(O)c(O)c(O)c1 (stereo partly drawn) [compound 15, N,N′-(((2R,3R,4R)-3,4,5-trihydroxytetrahydrofuran-2,4-diyl)bis(methylene))bis(3,4,5-trihydroxybenzamide)] | 22.35 | 63.8 | 57.74 | 191
COc1cc(C(=O)NC[C@H]2OC(O)[C@@](O)(CNC(=O)c3cc(OC)c(OC)c(OC)c3)[C@@H]2O)cc(OC)c1OC (stereo partly drawn) [compound 16, N,N′-(((2R,3R,4R)-3,4,5-trihydroxytetrahydrofuran-2,4-diyl)bis(methylene))bis(3,4,5-trimethoxybenzamide)] | 62.41 | 207 | 71.85 | 238
O=C(NC[C@H]1OC(O)[C@@](O)(CNC(=O)c2ccc(O)c(O)c2)[C@@H]1O)c1ccc(O)c(O)c1 (stereo partly drawn) [compound 17, N,N′-(((2R,3R,4R)-3,4,5-trihydroxytetrahydrofuran-2,4-diyl)bis(methylene))bis(3,4-dihydroxybenzamide)] | 55.76 | 182 | 61.16 | 169
O=C(NC[C@H]1OC(O)[C@@](O)(CNC(=O)c2cc(O)cc(O)c2)[C@@H]1O)c1cc(O)cc(O)c1 (stereo partly drawn) [compound 18, N,N′-(((2R,3R,4R)-3,4,5-trihydroxytetrahydrofuran-2,4-diyl)bis(methylene))bis(3,5-dihydroxybenzamide)] | 37.58 | 116 | 79.55 | 231
O=C(NC[C@H]1OC(O)[C@@](O)(CNC(=O)c2cccc(O)c2)[C@@H]1O)c1cccc(O)c1 (stereo partly drawn) [compound 19, N,N′-(((2R,3R,4R)-3,4,5-trihydroxytetrahydrofuran-2,4-diyl)bis(methylene))bis(3-hydroxybenzamide)] | 19.78 | 38.5 | 27.23 | 52.3
O=C(NC[C@H]1OC(O)[C@@](O)(CNC(=O)c2ccc(O)cc2)[C@@H]1O)c1ccc(O)cc1 (stereo partly drawn) [compound 20, N,N′-(((2R,3R,4R)-3,4,5-trihydroxytetrahydrofuran-2,4-diyl)bis(methylene))bis(4-hydroxybenzamide)] | 19.78 | 85.6 | 27.23 | 52.3
O=C(NC[C@H]1OC(O)[C@@](O)(CNC(=O)c2ccccc2)[C@@H]1O)c1ccccc1 (stereo partly drawn) [compound 21, N,N′-(((2R,3R,4R)-3,4,5-trihydroxytetrahydrofuran-2,4-diyl)bis(methylene))dibenzamide] | 18.04 | 73.6 | 56.02 | 154
Cc1ccc(C(=O)NC[C@H]2OC[C@@](O)(CNC(=O)c3ccccc3)[C@@H]2O)cc1 [compound 151, N-(((2R,3R,4S)-4-(benzamidomethyl)-3,4-dihydroxytetrahydrofuran-2-yl)methyl)-4-methylbenzamide] | 22.36 |  | 24.59 | 
O=C(NC[C@H]1OC[C@@](O)(CNC(=O)c2ccccc2)[C@@H]1O)c1ccc(F)cc1 [compound 152, N-(((2R,3R,4S)-4-(benzamidomethyl)-3,4-dihydroxytetrahydrofuran-2-yl)methyl)-4-fluorobenzamide] | 15.07 |  | 14.05 | 
O=C(NC[C@H]1OC[C@@](O)(CNC(=O)c2ccccc2)[C@@H]1O)c1ccc(Cl)cc1 [compound 153, N-(((2R,3R,4S)-4-(benzamidomethyl)-3,4-dihydroxytetrahydrofuran-2-yl)methyl)-4-chlorobenzamide] | 9.185 | 18 | 8.577 | 21.4
COc1ccc(C(=O)NC[C@H]2OC[C@@](O)(CNC(=O)c3ccccc3)[C@@H]2O)cc1 [compound 154, N-(((2R,3R,4S)-4-(benzamidomethyl)-3,4-dihydroxytetrahydrofuran-2-yl)methyl)-4-methoxybenzamide] | 19.34 |  | 22.56 | 
N#Cc1ccc(C(=O)NC[C@H]2OC[C@@](O)(CNC(=O)c3ccccc3)[C@@H]2O)cc1 [compound 155, N-(((2R,3R,4S)-4-(benzamidomethyl)-3,4-dihydroxytetrahydrofuran-2-yl)methyl)-4-cyanobenzamide] | 15.57 |  | 16.06 | 
CN(C)c1ccc(C(=O)NC[C@H]2OC[C@@](O)(CNC(=O)c3ccccc3)[C@@H]2O)cc1 [compound 156, N-(((2R,3R,4S)-4-(benzamidomethyl)-3,4-dihydroxytetrahydrofuran-2-yl)methyl)-4-(dimethylamino)benzamide] | 16.58 |  | 11.27 | 
O=C(NC[C@H]1OC[C@@](O)(CNC(=O)c2ccccc2)[C@@H]1O)c1ccc(C(F)(F)F)cc1 [compound 157, N-(((2R,3R,4S)-4-(benzamidomethyl)-3,4-dihydroxytetrahydrofuran-2-yl)methyl)-4-(trifluoromethyl)benzamide] | 15.95 |  | 11.25 | 
O=C(NC[C@H]1OC[C@@](O)(CNC(=O)c2ccccc2)[C@@H]1O)c1ccncc1 [compound 158, N-(((2R,3R,4S)-4-(benzamidomethyl)-3,4-dihydroxytetrahydrofuran-2-yl)methyl)isonicotinamide] | 7.268 | 9.94 | 13.89 | 19.2
O=C(NC[C@H]1OC[C@@](O)(CNC(=O)c2ccccc2)[C@@H]1O)c1ccc(-c2ccccc2)cc1 [compound 159, N-(((2R,3R,4S)-4-(benzamidomethyl)-3,4-dihydroxytetrahydrofuran-2-yl)methyl)-[1,1′-biphenyl]-4-carboxamide] | 10.97 | 6.38 | 6.966 | 11.3
Cc1cccc(C(=O)NC[C@H]2OC[C@@](O)(CNC(=O)c3ccccc3)[C@@H]2O)c1 [compound 160, N-(((2R,3R,4S)-4-(benzamidomethyl)-3,4-dihydroxytetrahydrofuran-2-yl)methyl)-3-methylbenzamide] | 23.09 |  | 23.39 | 
